{"source": "patent US11890287B2", "about": "“Therapeutic compounds and compositions for treating social disorders and substance use disorders” (Kinoxis Therapeutics Pty Ltd, priority 2015, dated 2024)", "key": {"[1]": {"assay": "Pharmacokinetics after IP and PO administration", "type": "in vivo, Hooded Wistar rats", "settings": "for AUC(0-inf) / AUC(0-t) / Cmax / Tmax: Hooded Wistar, rat, plasma", "experimental": "When given via an intraperitoneal injection (IP), SOC-1 plasma levels show a rapid elevation. This swiftly declines over the first hour before settling into a less hasty decrease in concentration over the proceeding hours. […] The initial increase in plasma levels is less pronounced when SOC-1 is given orally but the decline is far less rapid, with plasma concentration becoming equivalent to IP between 1 and 4 hours. In many ways this is a more favourable profile as, unlike the IP dosing, oral dosing results in levels of SOC-1 that are still high but that are also very stable over many hours, with a half-life of over four hours."}, "rats": {"tested_on": "rats", "assay": "Non-social tests of anxiety (elevated plus maze, open field)", "type": "in vivo, rat", "settings": "acute dosing or residual long-term effect"}, "male Albino Wistar rats": {"tested_on": "male Albino Wistar rats", "assay": "Social preference test (caged conspecific vs toy rat)", "type": "in vivo", "settings": "5 mg/kg IP"}, "rhesus monkeys": {"tested_on": "rhesus monkeys", "assay": "Intravenous cocaine self-administration", "type": "in vivo, rhesus monkey", "settings": "3 mg/kg orally"}, "V1aR": {"target": "T1, V1aR (Homo sapiens, UniProt P37288)", "T1 construct": "expressed in transfected cells; host or cells: HEK cells", "T1 sequence (P37288 whole entry)": "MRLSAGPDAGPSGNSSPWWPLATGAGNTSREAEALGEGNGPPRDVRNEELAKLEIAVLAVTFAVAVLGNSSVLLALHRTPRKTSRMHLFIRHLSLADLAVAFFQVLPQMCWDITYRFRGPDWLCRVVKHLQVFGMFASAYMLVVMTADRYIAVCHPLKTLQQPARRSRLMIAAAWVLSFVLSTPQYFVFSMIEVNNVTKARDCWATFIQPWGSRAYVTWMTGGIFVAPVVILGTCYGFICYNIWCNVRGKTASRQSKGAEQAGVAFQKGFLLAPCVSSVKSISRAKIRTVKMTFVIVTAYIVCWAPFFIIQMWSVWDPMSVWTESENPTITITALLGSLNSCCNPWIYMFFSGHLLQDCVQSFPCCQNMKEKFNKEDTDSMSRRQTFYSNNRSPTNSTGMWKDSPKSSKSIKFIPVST", "assay": "IP1 signalling on V1aR HEK cells", "type": "cell-based"}, "male Hooded Wistar rats": {"tested_on": "male Hooded Wistar rats", "assay": "Social interaction test", "type": "in vivo, rat", "experimental": "The primary phenotypic effect was a massive increase in a behaviour called “adjacent lying” where unfamiliar rats come together in passive social contact for prolonged periods. […] (n=6-8 pairs per condition, 20 minute test). Remarkably the effects of SOC-1 outlive its acute administration and a prolonged upregulation of social behaviour (measured as time spent in close proximity) in rats given only 3 doses of SOC-1, 2 weeks previously, was observed (FIG. 1, image (B))."}, "human V1a receptor": {"target": "human V1a receptor (Homo sapiens, UniProt P37288)", "sequence (P37288 whole entry)": "as above", "assay": "Orthosteric binding against [3H]AVP"}, "male Sprague Dawley rats": {"tested_on": "male Sprague Dawley rats", "assay": "Methamphetamine IVSA under a progressive ratio schedule", "type": "in vivo, rat", "experimental": "Following recovery from surgery, rats were able to self-administer intravenous METH during 2 hour sessions. At the beginning of each session, catheters were flushed with 0.1 ml heparinised saline (10 IU/ml) and were connected to the infusion line. Lever extension and house light illumination indicated the initiation of the session. […] Depression of the active lever delivered a 3 s infusion of METH (0.1 mg/kg/infusion, 50 μL), illuminated the cue light, and extinguished the house light. The house light was extinguished for a 20 second time period during which depression of the active lever had no programmed consequences. […] At the end of each session, the infusion line was disconnected and catheters were flushed with 0.2 ml of cephazolin sodium in heparinized saline solution.\nRats acquired self-administration of METH during daily 2 hour fixed ratio 1 scheduled sessions. To avoid overdose, each rat was limited to a maximum of 60 infusions per session. Rats continued under the FR-1 schedule until stable responding was met as indicated by less than 10% variability in number of infusions and active lever presses compared to the day prior. Stable self-administration baselines were achieved within 10 days, after which rats advanced to the progressive ratio schedule.\nUnder the progressive ratio (PR) schedule, METH infusions were delivered according to the ratio: ((5×(e^reinforcer #×0.2)−5). The number of active lever presses that were required to receive one METH infusion increased according to the following sequence: 1, 2, 4, 6, 9, 12, 15, 20, 25, 32, 40, 50, 62, 77, 95, 118, 145, 178, 219, 268 (Cornish et al., 2005). The daily PR sessions were completed after 2 hours or if an infusion had not been self-administered for 60 minutes. Rats continued with PR sessions until lever pressing stabilised, which was determined by less than 10% variability in number of infusions and active lever presses for two consecutive days. Lever pressing stabilised after 7 days. During this time, the rats were given a sham saline i.p. (1 ml/kg) injection prior to the session. […]"}, "human OT receptor": {"target": "human OT receptor (Homo sapiens, UniProt P30559)", "sequence (P30559 whole entry)": "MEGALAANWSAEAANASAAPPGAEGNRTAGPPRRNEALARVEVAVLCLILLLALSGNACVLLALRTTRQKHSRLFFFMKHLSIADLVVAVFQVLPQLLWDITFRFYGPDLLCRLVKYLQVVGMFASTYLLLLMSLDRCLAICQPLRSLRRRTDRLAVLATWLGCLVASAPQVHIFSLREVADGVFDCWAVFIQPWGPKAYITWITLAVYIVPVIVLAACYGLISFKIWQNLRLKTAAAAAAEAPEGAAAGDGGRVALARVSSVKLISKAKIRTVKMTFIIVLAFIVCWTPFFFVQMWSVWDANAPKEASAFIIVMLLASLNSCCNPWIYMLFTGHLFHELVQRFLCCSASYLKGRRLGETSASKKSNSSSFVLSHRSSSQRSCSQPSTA", "assay": "Orthosteric binding against [3H]OT"}, "Wistar rats": {"tested_on": "Wistar rats", "assay": "Biotelemetry of body temperature and heart rate", "type": "in vivo, rat", "experimental": "FIG. 7—The monitored body temperatures of Wistar rats administered vehicle, SOC-1 (5 mg/kg), or SOC-1 and the V1A receptor antagonist SR49059 (10 mg/kg).\nFIG. 8—The monitored heart rates for Wistar rats administered vehicle, SOC-1 (5 mg/kg), or SOC-1 and the V1A receptor antagonist SR49059 (10 mg/kg).\nHowever, the rats were not ataxic or comatose, they were simply in a relaxed quiescent state. […] Effects on body temperature and other behaviours are not blocked by pre-treatment with the vasopressin V1A receptor antagonist SR49059 (10 mg/kg). […] The data in these two studies was gathered with DataSciences International biotelemetry system."}}, "note": "“Also recorded” adds a separate entry of the source.", "data": [{"smiles": "Cl.Cn1ncc2c1Nc1ccccc1NC2", "note": "[SOC-1]", "values": [{"measurement": "AUC(0-inf)", "setting": "[1]; ip, 5 mg/kg", "result": 5910, "unit": "ng·h/mL"}, {"measurement": "AUC(0-t)", "setting": "[1]; ip, 5 mg/kg", "result": 5520, "unit": "ng·h/mL"}, {"measurement": "Cmax", "setting": "[1]; ip, 5 mg/kg", "result": 3840, "unit": "ng/mL"}, {"measurement": "Tmax", "setting": "[1]; ip, 5 mg/kg", "result": 3.96, "unit": "min"}, {"measurement": "AUC(0-inf)", "setting": "[1]; po, 5 mg/kg", "result": 8490, "unit": "ng·h/mL"}, {"measurement": "AUC(0-t)", "setting": "[1]; po, 5 mg/kg", "result": 4060, "unit": "ng·h/mL"}, {"measurement": "Cmax", "setting": "[1]; po, 5 mg/kg", "result": 1320, "unit": "ng/mL"}, {"measurement": "Tmax", "setting": "[1]; po, 5 mg/kg", "result": 26.1, "unit": "min"}, {"measurement": "ka", "setting": "[1]; IP, 5 mg/kg", "result": 71.727, "unit": "h⁻¹"}, {"measurement": "ke", "setting": "[1]; IP, 5 mg/kg", "result": 0.679, "unit": "h⁻¹"}, {"measurement": "t1/2ka", "setting": "[1]; IP, 5 mg/kg", "result": 0.5798, "unit": "min"}, {"measurement": "t1/2ke", "setting": "[1]; IP, 5 mg/kg", "result": 61.26, "unit": "min"}, {"measurement": "ka", "setting": "[1]; PO, 5 mg/kg", "result": 9.45, "unit": "h⁻¹"}, {"measurement": "t1/2ka", "setting": "[1]; PO, 5 mg/kg", "result": 4.38, "unit": "min"}, {"measurement": "t1/2ke", "setting": "[1]; PO, 5 mg/kg", "result": 248.8, "unit": "min"}, {"measurement": "half-life", "setting": "[1]; oral dosing", "result": "over four"}, {"measurement": "oral bioavailability", "setting": "[1]; relative to the intraperitoneal route", "result": "excellent oral bioavailability"}, {"measurement": "effect in non-social tests of anxiety", "setting": "rats", "result": "without effect"}, {"measurement": "preference for the live rat over a toy rat", "setting": "male Albino Wistar rats", "result": "enhanced rats natural preference for an unfamiliar live rat; also recorded: significantly elevated preference for the live rat"}, {"measurement": "food consumption", "setting": "rhesus monkeys", "result": "without affecting food consumption"}, {"measurement": "intravenous cocaine self-administration relative to baseline levels", "setting": "rhesus monkeys", "result": "nearly halved"}, {"measurement": "agonist or positive allosteric modulator activity at V1aR", "setting": "V1aR", "result": "not an agonist or positive allosteric modulator of V1aRs"}, {"measurement": "antagonist activity at V1aR", "setting": "V1aR", "result": "weak antagonist activity"}, {"measurement": "adjacent lying in the social interaction test", "setting": "male Hooded Wistar rats; 5 and 10 mg/kg IP, 20 minute test", "result": "massive increase in adjacent lying"}, {"measurement": "pro-social effects compared with AVP, MDMA and WAY 267,464", "setting": "male Hooded Wistar rats; most efficacious doses, adjacent lying", "result": "most powerful pro-social effects by a considerable margin"}, {"measurement": "proximity towards a novel conspecific (time spent within 1 body length)", "setting": "male Hooded Wistar rats; two weeks following treatment, 3 doses in total across 6 days", "result": "increased proximity towards a novel conspecific relative to controls"}, {"measurement": "IC50", "setting": "human V1a receptor", "result": "> 10", "unit": "µM"}, {"measurement": "active lever pressing under a PR schedule", "setting": "male Sprague Dawley rats; 5 mg (p=0.043) and 10 mg/kg (p=0.007) IP vs vehicle", "result": "significantly reduced active lever pressing"}, {"measurement": "infusion breakpoint", "setting": "male Sprague Dawley rats; 10 mg/kg IP, p=0.001 vs vehicle", "result": "significant reduction"}, {"measurement": "locomotor activity", "setting": "male Sprague Dawley rats; 10 mg/kg IP, p=0.005 vs vehicle", "result": "significant reduction"}, {"measurement": "IC50", "setting": "human OT receptor", "result": "> 10", "unit": "µM"}, {"measurement": "body temperature", "setting": "Wistar rats; 5 mg/kg", "result": "modest hypothermia"}, {"measurement": "heart rate", "setting": "Wistar rats; 5 mg/kg", "result": "no effect"}, {"measurement": "hypothermia at higher ambient temperatures", "setting": "Wistar rats; 30° C.", "result": "abolished"}]}]}
